From patent US9902702B2, “Spirocycloheptanes as inhibitors of rock” (BRISTOL-MYERS SQUIBB COMPANY, priority 2014, dated 2018)

Target: ROCK2 (Homo sapiens, UniProt O75116)
Test: ROCK assay: phosphorylation of FITC peptide substrate, LABCHIP 3000 mobility shift
Format: biochemical
Conditions: 5 μM ATP, 1.5 μM peptide substrate; read-out: ROCK2 Activity (ROCK IC50 range)
Summary of the method: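 Rho kinase variant phosphorylates 1.5 μM FITC-AHA-AKRRRLSSLRA-OH with 5 μM ATP in 20 mM HEPES pH 7.5, 20 mM MgCl2, 0.015% Brij-35, 4 mM DTT, DMSO <2%. EDTA stops the reaction, and phospho and non-phospho peptides are resolved by LabChip 3000 mobility shift. IC50 from dose-response curve fit.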

Chain of ROCK2 (O75116 whole entry, species assumed): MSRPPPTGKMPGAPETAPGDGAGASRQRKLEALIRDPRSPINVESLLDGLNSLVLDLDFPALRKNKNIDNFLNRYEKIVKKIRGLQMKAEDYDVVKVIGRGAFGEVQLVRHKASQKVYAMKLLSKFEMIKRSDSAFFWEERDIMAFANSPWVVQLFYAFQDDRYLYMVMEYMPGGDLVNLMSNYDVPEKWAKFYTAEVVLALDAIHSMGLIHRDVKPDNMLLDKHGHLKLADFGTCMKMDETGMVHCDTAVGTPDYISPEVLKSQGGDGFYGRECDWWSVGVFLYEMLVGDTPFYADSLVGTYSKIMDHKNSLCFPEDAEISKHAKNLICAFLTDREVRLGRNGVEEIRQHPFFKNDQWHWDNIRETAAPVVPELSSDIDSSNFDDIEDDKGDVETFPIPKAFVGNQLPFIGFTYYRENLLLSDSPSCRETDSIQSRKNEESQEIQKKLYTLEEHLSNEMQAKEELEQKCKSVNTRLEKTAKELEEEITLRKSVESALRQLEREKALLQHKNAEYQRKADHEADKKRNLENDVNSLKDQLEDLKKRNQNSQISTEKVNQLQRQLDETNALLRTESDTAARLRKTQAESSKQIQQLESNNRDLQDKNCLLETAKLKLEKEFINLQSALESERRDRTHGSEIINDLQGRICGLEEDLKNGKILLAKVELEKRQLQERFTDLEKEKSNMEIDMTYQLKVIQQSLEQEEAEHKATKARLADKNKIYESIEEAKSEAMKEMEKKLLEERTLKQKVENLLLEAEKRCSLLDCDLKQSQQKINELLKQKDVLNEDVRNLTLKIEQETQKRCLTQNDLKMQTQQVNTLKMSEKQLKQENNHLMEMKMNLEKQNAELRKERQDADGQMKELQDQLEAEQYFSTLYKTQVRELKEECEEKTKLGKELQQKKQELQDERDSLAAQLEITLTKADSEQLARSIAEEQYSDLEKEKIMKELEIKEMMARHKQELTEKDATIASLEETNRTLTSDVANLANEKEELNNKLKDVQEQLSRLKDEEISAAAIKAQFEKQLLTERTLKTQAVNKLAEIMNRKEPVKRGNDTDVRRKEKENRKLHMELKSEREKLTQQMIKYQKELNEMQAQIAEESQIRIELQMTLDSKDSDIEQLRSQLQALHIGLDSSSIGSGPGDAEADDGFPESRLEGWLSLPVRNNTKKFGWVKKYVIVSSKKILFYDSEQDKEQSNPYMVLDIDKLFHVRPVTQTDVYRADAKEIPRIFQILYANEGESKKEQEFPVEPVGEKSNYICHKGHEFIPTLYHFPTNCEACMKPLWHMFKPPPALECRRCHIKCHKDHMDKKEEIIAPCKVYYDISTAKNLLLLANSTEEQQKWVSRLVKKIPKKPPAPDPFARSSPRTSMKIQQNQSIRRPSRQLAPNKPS

Structure (SMILES) | IC50 [nM]
[H][C@]1(c2n[nH]c(=O)c3ccccc32)C[C@]2(C[C@@H](NC(=O)c3cnc4cc(F)ccn34)C2)C1 (stereo partly drawn) [Example 387, 7-fluoro-N-((aR)-6-(4-oxo-3,4-dihydrophthalazin-1-yl)spiro[3.3]heptan-2-yl)imidazo[1,2-a]pyridine-3-carboxamide] | 2.01 to 5
[H][C@]1(c2n[nH]c(=O)c3ccccc32)C[C@]2(C[C@@H](NC(=O)c3nc(C(C)C)n4c3CCCC4)C2)C1 (stereo partly drawn) [Example 388, 3-isopropyl-N-((aR)-6-(4-oxo-3,4-dihydrophthalazin-1-yl)spiro[3.3]heptan-2-yl)-5,6,7,8-tetrahydro-imidazo[1,5-a]pyridine-1-carboxamide] | 2.01 to 5
[H][C@]1(c2n[nH]c(=O)c3ccccc32)C[C@]2(C[C@@H](NC(=O)c3nnc4ccccn34)C2)C1 (stereo partly drawn) [Example 389, N-((aR)-6-(4-oxo-3,4-dihydrophthalazin-1-yl)spiro[3.3]heptan-2-yl)-[1,2,4]triazolo[4,3-a]pyridine-3-carboxamide] | 5.1 to 15
[H][C@]1(c2n[nH]c(=O)c3ccccc32)C[C@]2(C[C@@H](NC(=O)c3cnc4ccc(C(F)(F)F)cn34)C2)C1 (stereo partly drawn) [Example 390, N-((aR)-6-(4-oxo-3,4-dihydrophthalazin-1-yl)spiro[3.3]heptan-2-yl)-6-(trifluoro-methyl)imidazo[1,2-a]pyridine-3-carboxamide] | 5.1 to 15
[H][C@]1(c2n[nH]c(=O)c3ccccc32)C[C@]2(C[C@@H](NC(=O)c3cnc4cc(N5CCC(F)(F)CC5)ccn34)C2)C1 (stereo partly drawn) [Example 391, 7-(4,4-difluoropiperidin-1-yl)-N-((aR)-6-(4-oxo-3,4-dihydrophthalazin-1-yl)spiro[3.3]heptan-2-yl)imidazo[1,2-a]pyridine-3 carboxamide] | 0.2 to 2
[H][C@]1(c2n[nH]c(=O)c3ccccc32)C[C@]2(C[C@@H](NC(=O)c3cnc4cc(N5CCC(F)(F)C5)ccn34)C2)C1 (stereo partly drawn) [Example 392, 7-(3,3-difluoropyrrolidin-1-yl)-N-((aR)-6-(4-oxo-3,4-dihydrophthalazin-1-yl)spiro[3.3]heptan-2-yl)imidazo[1,2-a]pyridine-3 carboxamide] | 0.2 to 2
[H][C@]1(c2n[nH]c(=O)c3ccccc32)C[C@]2(C[C@@H](NC(=O)c3cnc4cc(N(C)CC(C)(C)O)ccn34)C2)C1 (stereo partly drawn) [Example 399, 7-((2-hydroxy-2-methyl-propyl)(methyl)amino)-N-((aR)-6-(4-oxo-3,4-dihydrophthalazin-1-yl)spiro[3.3]heptan-2-yl)imidazo[1,2-a]pyridine-3-carboxamide] | 2.01 to 5
[H][C@]1(c2n[nH]c(=O)c3ccccc32)C[C@]2(C[C@@H](NC(=O)c3cnc4cc(OCC(C)(C)O)ccn34)C2)C1 (stereo partly drawn) [Example 400, 7-(2-hydroxy-2-methylpropoxy)-N-((aR)-6-(4-oxo-3,4-dihydrophthalazin-1-yl)spiro[3.3]heptan-2-yl)imidazo[1,2-a]pyridine-3-carboxamide] | 0.2 to 2
[H][C@]1(c2n[nH]c(=O)c3ccccc32)C[C@]2(C[C@@H](NC(=O)c3cnc4cc(OCCN5CCCC5)ccn34)C2)C1 (stereo partly drawn) [Example 401, N-((aR)-6-(4-oxo-3,4-dihydrophthalazin-1-yl)spiro[3.3]heptan-2-yl)-7-(2-(pyrrolidin-1-yl)ethoxy)imidazo[1,2-a]pyridine-3-carboxamide] | 2.01 to 5
[H][C@]1(c2n[nH]c(=O)c3ccccc32)C[C@]2(C[C@@H](NC(=O)c3cnc4cc(C(F)(F)F)ccn34)C2)C1 (stereo partly drawn) [Example 403, N-((aR)-6-(4-oxo-3,4-dihydrophthalazin-1-yl)spiro[3.3]heptan-2-yl)-7-(trifluoromethyl)imidazo[1,2-a]pyridine-3-carboxamide] | 2.01 to 5
[H][C@]1(c2n[nH]c(=O)c3ccccc32)C[C@]2(C[C@@H](NC(=O)c3cnc4c(C)cc(F)cn34)C2)C1 (stereo partly drawn) [Example 405, 6-fluoro-8-methyl-N-((aR)-6-(4-oxo-3,4-dihydrophthalazin-1-yl)spiro[3.3]heptan-2-yl)imidazo[1,2-a]pyridine-3-carboxamide] | 0.2 to 2
[H][C@]1(c2n[nH]c(=O)c3ccccc32)C[C@]2(C[C@@H](NC(=O)c3cnc4ccc(F)cn34)C2)C1 (stereo partly drawn) [Example 408, 6-fluoro-N-((aR)-6-(4-oxo-3,4-dihydrophthalazin-1-yl)spiro[3.3]heptan-2-yl)imidazo[1,2-a]pyridine-3-carboxamide] | 2.01 to 5
[H][C@]1(c2n[nH]c(=O)c3ccccc32)C[C@]2(C[C@@H](NC(=O)c3cnc4cc(C)c(F)cn34)C2)C1 (stereo partly drawn) [Example 410, 6-fluoro-7-methyl-N-((aR)-6-(4-oxo-3,4-dihydrophthalazin-1-yl)spiro[3.3]heptan-2-yl)imidazo[1,2-a]pyridine-3-carboxamide] | 2.01 to 5
[H][C@]1(c2n[nH]c(=O)c3ccccc32)C[C@]2(C[C@@H](NC(=O)c3cnc4cc(C)ccn34)C2)C1 (stereo partly drawn) [Example 412, 7-methyl-N-((aR)-6-(4-oxo-3,4-dihydrophthalazin-1-yl)spiro[3.3]heptan-2-yl)imidazo[1,2-a]pyridine-3-carboxamide] | 2.01 to 5

Further lines, results first:

IC50 [nM] | Structure (SMILES)
2.01 to 5 | [H][C@]1(c2n[nH]c(=O)c3ccccc32)C[C@]2(C[C@@H](NC(=O)c3cnc4c(Cl)c(C)ccn34)C2)C1 (stereo partly drawn) [Example 386, 8-chloro-7-methyl-N-((aR)-6-(4-oxo-3,4-dihydro-phthalazin-1-yl)spiro[3.3]heptan-2-yl)imidazo[1,2-a]pyridine-3-carboxamide]
0.2 to 2 | [H][C@]1(c2n[nH]c(=O)c3ccccc32)C[C@@]2(C[C@H](NC(=O)c3cnc4cc(N5CC[C@@H](F)C5)ccn34)C2)C1 (stereo partly drawn) [Example 393, 7-((R)-3-fluoropyrrolidin-1-yl)-N-((aR)-6-(4-oxo-3,4-dihydrophthalazin-1-yl)spiro[3.3]heptan-2-yl)imidazo[1,2-a]pyridine-3-carboxamide]
0.2 to 2 | [H][C@]1(c2n[nH]c(=O)c3ccccc32)C[C@@]2(C[C@H](NC(=O)c3cnc4cc(N5CC[C@H](F)C5)ccn34)C2)C1 (stereo partly drawn) [Example 394, 7-((S)-3-fluoropyrrolidin-1-yl)-N-((aR)-6-(4-oxo-3,4-dihydrophthalazin-1-yl)spiro[3.3]heptan-2-yl)imidazo[1,2-a]pyridine-3-carboxamide]
2.01 to 5 | [H][C@]1(c2n[nH]c(=O)c3ccccc32)C[C@@]2(C[C@H](NC(=O)c3cnc4cc(N5CC[C@@H](O)C5)ccn34)C2)C1 (stereo partly drawn) [Example 395, 7-((R)-3-hydroxypyrrolidin-1-yl)-N-((aR)-6-(4-oxo-3,4-dihydrophthalazin-1-yl)spiro[3.3]heptan-2-yl)imidazo[1,2-a]pyridine-3-carboxamide]
2.01 to 5 | [H][C@]1(c2n[nH]c(=O)c3ccccc32)C[C@]2(C[C@@H](NC(=O)c3cnc4cc(N(C)CCO)ccn34)C2)C1 (stereo partly drawn) [Example 396, 7-((2-hydroxy-ethyl)(methyl)amino)-N-((aR)-6-(4-oxo-3,4-dihydrophthalazin-1-yl)spiro[3.3]heptan-2-yl)imidazo[1,2-a]pyridine-3-carboxamide]
0.2 to 2 | [H][C@]1(c2n[nH]c(=O)c3ccccc32)C[C@]2(C[C@@H](NC(=O)c3cnc4cc(N(C)CCOC)ccn34)C2)C1 (stereo partly drawn) [Example 397, 7-((2-methoxy-ethyl)(methyl)amino)-N-((aR)-6-(4-oxo-3,4-dihydrophthalazin-1-yl)spiro[3.3]heptan-2-yl)imidazo[1,2-a]pyridine-3-carboxamide]
0.2 to 2 | [H][C@]1(c2n[nH]c(=O)c3ccccc32)C[C@]2(C[C@@H](NC(=O)c3cnc4cc(OCCN5CCOCC5)ccn34)C2)C1 (stereo partly drawn) [Example 398, 7-(2-morpholinoethoxy)-N-((aR)-6-(4-oxo-3,4-dihydrophthalazin-1-yl)spiro[3.3]heptan-2-yl)imidazo[1,2-a]pyridine-3-carboxamide]
100 to 2100 | [H][C@]1(c2n[nH]c(=O)c3ccccc32)C[C@]2(C[C@@H](NC(=O)c3cn(CC(C)(C)O)c4cc(=O)ccn34)C2)C1 (stereo partly drawn) [Example 402, 1-(2-hydroxy-2-methylpropyl)-7-oxo-N-((aR)-6-(4-oxo-3,4-dihydrophthalazin-1-yl)spiro[3.3]heptan-2-yl)-1,7-dihydroimidazo[1,2-a]pyridine-3-carboxamide]
15.1 to 100 | [H][C@]1(c2n[nH]c(=O)c3ccccc32)C[C@]2(C[C@@H](NC(=O)c3cnc4c(F)cc(C(F)(F)F)cn34)C2)C1 (stereo partly drawn) [Example 404, 8-fluoro-N-((aR)-6-(4-oxo-3,4-dihydrophthalazin-1-yl)spiro[3.3]heptan-2-yl)-6-(trifluoromethyl)imidazo[1,2-a]pyridine-3-carboxamide]
0.2 to 2 | [H][C@]1(c2n[nH]c(=O)c3ccccc32)C[C@]2(C[C@@H](NC(=O)c3cnc4cc(OC(F)F)ccn34)C2)C1 (stereo partly drawn) [Example 406, 7-(difluoromethoxy)-N-((aR)-6-(4-oxo-3,4-dihydrophthalazin-1-yl)spiro[3.3]heptan-2-yl)imidazo[1,2-a]pyridine-3-carboxamide]
15.1 to 100 | [H][C@]1(c2n[nH]c(=O)c3ccccc32)C[C@]2(C[C@@H](NC(=O)c3cnc4ccc(F)c(C)n34)C2)C1 (stereo partly drawn) [Example 407, 6-fluoro-5-methyl-N-((aR)-6-(4-oxo-3,4-dihydrophthalazin-1-yl)spiro[3.3]heptan-2-yl)imidazo[1,2-a]pyridine-3-carboxamide]
2.01 to 5 | [H][C@]1(c2n[nH]c(=O)c3ccccc32)C[C@]2(C[C@@H](NC(=O)c3cnc4cc(NCC(C)(C)O)ccn34)C2)C1 (stereo partly drawn) [Example 409, 7-((2-hydroxy-2-methylpropyl)amino)-N-((aR)-6-(4-oxo-3,4-dihydrophthalazin-1-yl)spiro[3.3]heptan-2-yl)imidazo[1,2-a]pyridine-3-carboxamide,]
5.1 to 15 | [H][C@]1(c2n[nH]c(=O)c3ccccc32)C[C@]2(C[C@@H](NC(=O)c3cnc4c(F)cc(F)cn34)C2)C1 (stereo partly drawn) [Example 411, 6,8-difluoro-N-((aR)-6-(4-oxo-3,4-dihydrophthalazin-1-yl)spiro[3.3]heptan-2-yl)imidazo[1,2-a]pyridine-3-carboxamide]
